Assay results published in publication PMC9088311, “Cyclic Thiosulfonates for Thiol-Mediated Uptake: Cascade Exchangers, Transporters, Inhibitors” (JACS Au, 2022).
Values joined by “and” are separate entries in the source; they are usually repeats but may differ in a detail not shown here. Equal entries are not always repeated.

Assay: Dynamic covalent ring opening with thiol 10, 1H NMR kinetics
Assay type: physicochemical
Procedure: The dynamic covalent opening of CTO 3 with thiols yields product 9 with a disulfide and a sulfinate (Figure 3B). Consistent with short chalcogen bonds found in silico, the opening of CTO 3 was instantaneous on an NMR timescale with most thiols. To decelerate ring opening, bulky thiols were considered in combination with lowered pH to deactivate the nucleophile. With N-Ac-D-penicillamine 10, the opening of 5 mM CTO 3 in phosphate buffer/DMSO-d6 9:1 was still immediate at pD 6.7 but became detectable in ^1H NMR spectroscopy kinetics under more acidic conditions. The ring-opening rate constants k^O were estimated by fitting the initial velocities to second-order kinetics. Only lower bound rates were approximated from the earliest determined substrate conversions when reactions were still too fast despite the unfavorable conditions. At pD 5.4, dynamic covalent ring opening of CTO 3 with equimolar tertiary thiol 10 occurred with k^O > 0.49 M^–1 s^–1 and equilibrated at K = 6.0 × 10^3 M^–1 (Table 1, entry 1, Figures S4 and S5). At pD 2.7, further deceleration to k^O = 0.10 M^–1 s^–1 shifted the equilibrium to K = 500 M^–1 (Table 1, entry 2, Figures S6 and S7). […] At equilibrium, the concentration of thiol 10 further decreased slowly due to oxidation into the homodimer (Figure 3C, diamonds).
Equilibrium constants for reactions with two reactants A and B and a product C are […]
3.1.1. Dynamic Covalent Ring Opening with Thiols
General procedure A (at 5 mM): To a solution of deuterated sodium phosphate (200 mM in D 2O, pD 2.7 or 5.4, 180 mM final concentration), a stock solution of substrate (0.10 M in DMSO-d6, 5.0 mM final concentration) was added and stirred. Then a stock solution of 10 (0.10 M in DMSO- d6, 5.0 mM final concentration) was added and vigorously stirred at room temperature. The solution was transferred immediately to an NMR tube and NMR data were recorded repeatedly. The concentration of the substrate or thiol at each time plot was calculated by comparing the integrals of the peaks indicated with arrows in the figures, and plotted. The data points were fitted to obtain k1 with the Equation (S6) or (S7) using Graphpad Prism.
General procedure B (at 2 mM): To a solution of deuterated sodium phosphate (200 mM in D 2O, pD 2.7 or 5.4, 180 mM final concentration), DMSO- d6 (10% DMSO- d6 in the reaction mixture) and a stock solution of substrate (0.10 M in DMSO- d6, 2.0 mM final concentration) were added and stirred. Then a stock solution of 10 (0.10 M in DMSO- d6, 2.0 mM final concentration) was added and vigorously stirred at room temperature. The solution was transferred immediately to an NMR tube and NMR data were recorded repeatedly. The concentration of the substrate or thiol at each time plot was calculated by comparing the integrals of the peaks indicated with arrows in the figures, and plotted. The data points were fitted to obtain k1 with the Equation (S6) or (S7) using Graphpad Prism.
General procedure C (for thiosulfinates): To a solution of deuterated sodium phosphate (200 mM in D 2O, pD 5.4, 170 mM final concentration), a stock solution of substrate (0.10 M in DMSO- d6, 5.0 mM final concentration) was added and stirred. Then a stock solution of 10 (0.10 M in DMSO- d6, 10 mM final concentration) was added and vigorously stirred at room […]
data points were fitted to obtain k1 with the Equation (S14) or (S16) using Graphpad Prism. […]
3.1.2. Dependence of Ring Opening on Proticity
A mixture of deuterated phosphoric acid and NaOD (30% in D 2O), which gave pD 2.7 in D2O, was used as buffer in all solvent mixtures. To a solution of deuterated sodium phosphate (20 mM final concentration) in a mixture of D 2O and DMSO- d6 (540 μL, final D 2O content: […]
concentration) was added and stirred. Then a stock solution of 10 (0.10 M in DMSO- d6, 5.0 mM final concentration) was added and vigorously stirred at room temperature. The solution was transferred immediately to an NMR tube and 1H NMR data were recorded repeatedly. […]

[1] = equimolar 10, rt, pD 2.7, 90% D2O, Na+ phosphate 180 mM, substrate 2 mM

O=S1(=O)C=C[C@@H](O)CS1 [Compound 12]
k^O, rate constant of ring opening (or equivalent for acyclic controls) [1]: >6.1 M^–1 s^–1 | krel^O, rate constant of ring opening relative to 3 (pD 2.7, 90% D2O, 2 mM): >61

O=C1O[C@H]2CSS(=O)(=O)C[C@H]2O1 [Compound 11]
k^O, rate constant of ring opening (or equivalent for acyclic controls) [1]: >12 M^–1 s^–1 | krel^O, rate constant of ring opening relative to 3 (pD 2.7, 90% D2O, 2 mM): >120 | ring opening faster than 3 (fold) (with thiol 10, pD 2.7): > 100 ×

[O-][S+]1C[C@@H](O)[C@@H](O)CS1 (some centres unmarked) [Compound 2]
k^O, rate constant of ring opening (or equivalent for acyclic controls) (2 equiv of 10, rt, pD 5.4, 85% D2O, Na+ phosphate 170 mM, substrate 5 mM): 0.001 M^–1 s^–1 | krel^O, rate constant of ring opening relative to 3 (pD 5.4, 85% D2O, 5 mM, 2 equiv of 10): <0.002 | ring opening/exchange slower than CTO 3 (fold) (with thiol 10, pD 5.4): > 500 ×

O=S1(=O)C[C@H](O)[C@H](O)CS1 (stereo in doubt) [Compound 3, (4S,5R)-4,5-dihydroxy-1,2-dithiane-1,1-dioxide]
k^O, rate constant of ring opening (equimolar 10, rt, pD 2.7, 90% D2O/DMSO-d6, Na+ phosphate 180 mM, substrate 5 mM): 0.10 M^–1 s^–1 and 0.10 ^i M^–1 s^–1 | k^O, rate constant of ring opening (or equivalent for acyclic controls) (equimolar 10, rt, pD 5.4, 90% D2O/DMSO-d6, Na+ phosphate 180 mM, substrate 5 mM): >0.49 M^–1 s^–1 | k^O, rate constant of ring opening (estimated pD 2.7, Na+ phosphate 20 mM, 2% D2O, 5 mM): >1.4 M^–1 s^–1 | k^O, rate constant of ring opening (estimated pD 2.7, Na+ phosphate 20 mM, 5% D2O, 5 mM): >1.3 M^–1 s^–1 | k^O, rate constant of ring opening (estimated pD 2.7, Na+ phosphate 20 mM, 8% D2O, 5 mM): >1.4 M^–1 s^–1 | k^O, rate constant of ring opening (estimated pD 2.7, Na+ phosphate 20 mM, 10% D2O, 5 mM): >2.1 M^–1 s^–1 | k^O, rate constant of ring opening (estimated pD 2.7, Na+ phosphate 20 mM, 30% D2O, 5 mM): >2.8 M^–1 s^–1 | k^O, rate constant of ring opening (estimated pD 2.7, Na+ phosphate 20 mM, 50% D2O, 5 mM): >1.3 M^–1 s^–1 | k^O, rate constant of ring opening (estimated pD 2.7, Na+ phosphate 20 mM, 70% D2O, 5 mM): 0.28 ± 0.03 M^–1 s^–1 and 0.28 M^–1 s^–1 | k^O, rate constant of ring opening (estimated pD 2.7, Na+ phosphate 20 mM, 90% D2O, 5 mM): 0.15 ± 0.01 M^–1 s^–1 and 0.15 M^–1 s^–1 | krel^O, rate constant of ring opening relative to 3 (pD 2.7, 90% D2O, 5 mM): 1 | krel^O, rate constant of ring opening relative to 3 (pD 5.4, 90% D2O, 5 mM): 1
